Like-named read-outs stand apart in the source and are kept apart here.
Key:
[1] = system: human melanoma M21 (αvβ3 positive) cells; assay: Cell uptake and internalization in M21 cells; assay type: cell-based
Protocol: (§1) Cell uptake and internalization studies were performed on receptor-positive human melanoma M21 (expressing high levels of αvβ3 integrin and moderate level of integrin αvβ5), human breast cancer MCF7 (exclusively expressing αvβ5), and receptor-negative human melanoma M21L cell lines. The expression of αvβ3 and αvβ5 by cells was already evaluated by flow cytometry (Table 2). The stability of each radiolabeled peptide in the culture media before and after cell exposure was assessed.
(§2) Experiments were conducted in suspension at 37 °C. The working conditions were set up to avoid cell damage and/or death. With the use of these information, the cells were pre-incubated in sterile glass tubes at 37 °C for 10 min, in the presence or not of cRGDfK pentapeptide (50 µL; 1.65 mM).
(§3) Then, 1 mL of the cell suspension (1 × 10^6 cells/mL) was incubated with intermittent agitation with 10 µL (10 µCi) of ^99mTc1–3. At 90 min, the cells were moved in Eppendorf microcentrifuge tubes (1.5 mL) and the incubation was interrupted by centrifugation (3000 rpm for 5 min at 10 °C). The supernatant (S1) was separated from the pellet. The cell pellet was treated 10 min at room temperature with saline acetate buffer (CH3COOH 0.2M/NaCl 0.5 M) to remove the membrane-bound compound. After centrifugation (3000 rpm for 10 min at 10 °C), the supernatant (S2) was separated from the pellet (P1), and each fraction was collected, placed in a separated counting tube, and the activity was measured using a NaI counter (Cobra II, Packard) to estimate both the cell uptake and the internalized fraction.
(§4) The uptake of complexes was expressed as percentage cell uptake of the total activity on 10^6 cells (% cell uptake/10^6 cells).
(§5) All assessments were conducted in triplicate for three experiments.

[2] = system: M21 and M21L melanoma tumors; details: cited from earlier work; for Blood / Heart / Intestine / Kidneys / Liver / Muscle / Stomach: tumor-bearing mice
[3] = assay type: in vitro ADME; details: serum
Protocol: Thus, to have some predictive indications of the metabolic outcome of our compounds, the binding to serum proteins and the enzymatic biotransformation of ^99mTc1–3 in blood and tissue homogenates were assessed in vitro by incubating the purified compounds at 37 °C in human and mouse sera as well as in murine liver and kidney homogenates.
Protein Binding. The affinity of the ^99mTc(N) complexes toward the serum proteins was evaluated by chromatographic methods.
Upon incubation, 25 µL of each sample was withdrawn and loaded on a pre-spun (735× g for 2 min) Sephadex G-50 mini-column. The column was centrifuged at 735 × g for 1 min. The collected eluate and the column were counted in a NaI-scintillation counter. The protein-bound complex was calculated as the percentage of the total activity.

[4] = system: receptor-negative human melanoma M21L cells; assay: Cell uptake and internalization in M21L cells; assay type: cell-based; details: negative M21L cell line, 37 °C, 90 min
Protocol: as §1, §2, §3, §4, §5

[5] = assay type: physicochemical
Protocol: To explore the impact of the PNP ligand on the lipophilicity of the complexes, Log Ps in a mixture of n-octanol and PBS were determined. The lipophilicity decreased in the order ^99mTc1 > ^99mTc2 > ^99mTc3. The lipophilic character of each compound correlated well with the corresponding HPLC retention time and protein binding behavior.
Determination of log P values. n-Octanol/PBS partition coefficients were determined by vortex mixing (20 min) 3.0 mL of n-octanol, 3.0 mL of PBS and 100 µL of the radiolabeled compound purified as above. After centrifugation (3000 g for 10 min), aliquots (100 µL) of both the organic and the aqueous phases were collected and counted with a γ-counter.

In the case of `N=C(N)NCCC[C@@H]1NC(=O)[C@H](CCCCNC(=O)c2ccc(NN)nc2)NC(=O)[C@@H](Cc2ccccc2)NC(=O)[C@H](CC(=O)O)NC(=O)CNC1=O` [^99mTc-HYNIC-cRGDfK, metal not drawn], the “cell uptake (sum of surface bound and internalized radioactivity), blocked” value ([1]; M21 blocked by an excess of cold cRGDfK, 37 °C, 90 min) is reported as 0.85 ± 0.08 % cell uptake/10^6 cells, the “cell uptake (sum of surface bound and internalized radioactivity)” value ([1]; M21 unblocked, 37 °C, 90 min) is reported as 1.50 ± 0.08 % cell uptake/10^6 cells and the “specific/nonspecific ratio, internalized radioactivity only” value ([1]; internalized radioactivity, melanoma cell lines) is reported as 6.6. The “ratio between specific and non-specific uptake” value ([1]; total uptake, melanoma cell lines) was 1.15, the M21/M21L ratio ([2]; 1 h p.i.) was 3.21 and the M21/blood ratio ([2]; 1 h p.i.) was 2.79. The M21/kidneys ratio ([2]; 1 h p.i.) was 0.74, the M21/liver ratio ([2]; 1 h p.i.) was 1.03 and the M21/muscle ratio ([2]; 1 h p.i.) was 3.59. The M21L tumor uptake ([2]; 1 h p.i.) was 0.85 ± 0.20 %IA/g, the M21 tumor uptake ([2]; 1 h p.i.) was 2.73 ± 0.26 %IA/g and the M21/blood ratio ([2]; 4 h p.i.) was 4.58. The M21/kidneys ratio ([2]; 4 h p.i.) was 0.73, the M21/liver ratio ([2]; 4 h p.i.) was 1.20 and the M21/muscle ratio ([2]; 4 h p.i.) was 6.05. For the same compound, the M21 tumor uptake ([2]; 4 h p.i.) was 2.06 ± 0.37 %IA/g, the Blood ([2]; 1 h p.i.) was 0.98 ± 0.04 %IA/g and the Heart ([2]; 1 h p.i.) was 1.01 ± 0.05 %IA/g. The Intestine ([2]; 1 h p.i.) was 2.04 ± 0.18 %IA/g, the Kidneys ([2]; 1 h p.i.) was 3.68 ± 0.13 %IA/g and the Liver ([2]; 1 h p.i.) was 2.63 ± 0.14 %IA/g. The Muscle ([2]; 1 h p.i.) was 0.76 ± 0.69 %IA/g, the Stomach ([2]; 1 h p.i.) was 2.50 ± 0.75 %IA and the Blood ([2]; 4 h p.i.) was 0.45 ± 0.02 %IA/g. For the same compound, the Heart ([2]; 4 h p.i.) was 0.64 ± 0.09 %IA/g, the Intestine ([2]; 4 h p.i.) was 1.29 ± 0.25 %IA/g and the Kidneys ([2]; 4 h p.i.) was 2.81 ± 0.37 %IA/g. For the same compound, the Liver ([2]; 4 h p.i.) was 1.71 ± 0.28 %IA/g, the Muscle ([2]; 4 h p.i.) was 0.34 ± 0.05 %IA/g and the Stomach ([2]; 4 h p.i.) was 1.28 ± 0.22 %IA. For the same compound, the fraction unbound [3] was 0.977, the “cell uptake (sum of surface bound and internalized radioactivity)” value [4] was 1.30 ± 0.15 % cell uptake/10^6 cells and the logP [5] was -3.52.

From PMC9029856, “Impact of Different [Tc(N)PNP]-Scaffolds on the Biological Properties of the Small cRGDfK Peptide: Synthesis, In Vitro and In Vivo Evaluations” (Molecules, 2022)
